From patent US10744209B2, “Biodegradable polymeric nanoparticle conjugates and use thereof” (NEW YORK UNIVERSITY, priority 2015, dated 2020)

Experiments:
[1] = cited from earlier work
RAW264.7 cells = assay: RANKL-induced osteoclast differentiation, TRAP staining; assay type: cell-based; conditions: 50 ng/ml RANKL; CGS21680 10^−6M; four days
Procedure: Tartrate-resistant acid phosphatase (TRAP) staining was carried out. The number of TRAP-positive MNCs containing ≥3 nuclei/cell was scored.

Structure (SMILES) | half-life in vivo [1] [s] | RANKL-induced osteoclast differentiation (RAW264.7 cells)
Nc1ncnc2c1ncn2[C@@H]1O[C@H](CO)[C@@H](O)[C@H]1O [Adenosine, adenosine] | < 10 | –
CCNC(=O)[C@H]1O[C@@H](n2cnc3c(N)nc(NCCc4ccc(CCC(=O)O)cc4)nc32)[C@H](O)[C@@H]1O [CGS21680] | – | block
